# Measurements from patent publication US9211314B2, “Treatment selection for lung cancer patients using mass spectrum of blood-based sample” (Biodesix, Inc., priority 2014, dated 2015).
# “And” between values parts separate entries of the source, which are not always exact repeats. Equal entries are not always repeated.
# What was measured:
# [1] = test system: advanced NSCLC patients; assay: PROSE study: second-line erlotinib versus chemotherapy, OS and PFS by VS2.0/VS1.0 classification; format: in vivo, human
# Experimental: The final CMC/D classifier described above was subject to a test on mass spectra obtained from available samples from the PROSE study under a validation protocol. The final CMC/D classifier was deemed fixed prior to this validation protocol. Mass spectra were provided to analysts blinded to their clinical data. The spectra were analyzed as described above and the resulting classifications (Appendix G) were generated. An un-blinding key was then provided and a statistical analysis was carried out.
# For patient 01—044 and patient 01—080, two samples were available. […] No samples were available for patient 01—050, patient 03—006, patient 06—004, patient 06—021, patient 11—043, patient 11—048, and patient 12—014.
# [2] = test system: advanced NSCLC patients; details: PROSE, patients classified as VSP (VS1.0); cited from earlier work
# [3] = test system: advanced NSCLC patients; assay: Time-to-event outcomes (OS, PFS) of development set patients (Italian A, B, C cohorts) grouped by VS2.0/VS1.0 classification; format: in vivo, human; details: for Cox HR (95% CI), OS / Cox HR (95% CI), PFS / Median OS / Median PFS: development set
# Source text: The following cohorts of patients had samples available for this project: sample sets known as “Italian A”, “Italian B”, “Italian C.” Italian A and B were cohorts of patients with advanced NSCLC treated with gefitinib used in the development and validation of the original VeriStrat test. See generally, U.S. Pat. No. 7,736,905; Taguchi et al., JNCI 99: 838-846 (2007). Italian C was a cohort of patients treated in advanced line with a variety of chemotherapy regimens.
# The VS2.0 final classifier was applied to all samples in the development set. Note that this includes samples included in training of the classifier. The VS2.0 classifications of the development set samples are given in Appendix E. Notice that all samples with a VS1.0 classification of Poor were assigned a label of Early. OS and PFS are plotted for patients in the development set grouped according to: Late, Unknown and Early (excluding VS1.0 Poor) and VS 1.0 Poor in FIG. 6. Note that several patients in the Italian C cohort had OS data, but no PFS data. FIG. 6 is a plot of time-to-event outcomes of patients in the development set with labels assigned from development set spectra; FIG. 6A: OS for gefitinib-treated patients, FIG. 6B: PFS for gefitinib-treated patients, FIG. 6C: OS for chemotherapy-treated patients and FIG. 6D PFS for chemotherapy-treated patients.
# [4] = group Early/Unknown (VS1.0 Good)
# [5] = comparison Early/Unk vs Late within treatment
# [6] = comparison Poor vs Early/Unk within treatment
# [7] = comparison Poor vs Late within treatment
# [8] = group Early/Unknown (excluding VS1.0 Poor)
smiles,measurement,setting,value
"C#Cc1cccc(Nc2ncnc3cc(OCCOC)c(OCCOC)cc23)c1 [ERL, erlotinib]",Median OS,[1]; [4],9.6 months
same,Median PFS,[1]; [4],2.3 months
same,Median OS,[1]; group Late,17.1 months
same,Median PFS,[1]; group Late,3.9 months
same,Median OS,"[1]; group Late, listed as erlotinib",17.1 months and 17 months
same,Median OS,[1]; group VS1.0 Poor,3.1 months
same,Median PFS,[1]; group VS1.0 Poor,1.7 months
same,"HR (95% CI), OS, Treatment: CT vs ERL",[1]; multivariate analysis of VS1.0 Good population,1.12 (0.85-1.65)
same,"Survival, erlotinib versus chemotherapy",[2],better survival on chemotherapy versus erlotinib
"COc1cc2ncnc(Nc3ccc(F)c(Cl)c3)c2cc1OCCCN1CCOCC1 [GEF, gefitinib]","Cox HR (95% CI), OS",[3]; [5],0.59 (0.37-0.94)
same,"Cox HR (95% CI), PFS",[3]; [5],0.58 (0.37-0.91)
same,"Cox HR (95% CI), OS",[3]; [6],0.49 (0.33-0.75)
same,"Cox HR (95% CI), PFS",[3]; [6],0.64 (0.42-0.95)
same,"Cox HR (95% CI), OS",[3]; [7],0.30 (0.18-0.49)
same,"Cox HR (95% CI), PFS",[3]; [7],0.36 (0.22-0.60)
same,Median OS,[3]; [8],243 days
same,Median PFS,[3]; [8],92 days
same,Median OS,[3]; group Late,457 days
same,Median PFS,[3]; group Late,208 days
same,Median OS,[3]; group VS1.0 Poor,96.5 days
same,Median PFS,[3]; group VS1.0 Poor,61.5 days
same,"Benefit by overall survival curves, gefitinib versus chemotherapy","[3]; patients whose sample tested Late, FIGS. 6A and 6C",greater benefit from gefitinib than chemotherapy
